In PubChem BioAssay (NCI):
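Each compound was tested at five concentrations against cells in 96-well plates for 48 hours. GI50: concentration for 50% inhibition of growth. At the TGI there is no net growth.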

Tests used:
Experiment in all cases: NCI-60 cell line screen, 48 h; in the data active = GI50 below about 0.43 µM; inactive = the rest
[1] = test system: SF-295 CNS
[2] = test system: RXF 393 renal
[3] = test system: NCI-H460 lung
[4] = test system: OVCAR-5 ovarian
[5] = test system: MALME-3M melanoma
[6] = test system: COLO 205 colon
[7] = test system: KM12 colon
[8] = test system: DU-145 prostate
[9] = test system: UACC-62 melanoma
[10] = test system: SN12C renal
[11] = test system: UO-31 renal
[12] = test system: MDA-MB-231 breast
[13] = test system: 786-0 renal
[14] = test system: PC-3 prostate
[15] = test system: T-47D breast
[16] = test system: HOP-62 NSCLC
[17] = test system: SR leukemia
[18] = test system: SK-OV-3 ovarian
[19] = test system: LOX IMVI melanoma
[20] = test system: NCI-H23 lung
[21] = test system: OVCAR-8 ovarian
[22] = test system: ACHN renal
[23] = test system: MOLT-4 leukemia
[24] = test system: SNB-75 CNS
[25] = test system: IGROV1 ovarian
[26] = test system: U251 CNS
[27] = test system: SF-539 CNS
[28] = test system: HCT-116 colon
[29] = test system: CAKI-1 renal
[30] = test system: CCRF-CEM leukemia
[31] = test system: NCI-H226 lung
[32] = test system: SNB-19 CNS
[33] = test system: OVCAR-4 ovarian
[34] = test system: MDA-MB-435
[35] = test system: SK-MEL-5 melanoma
[36] = test system: SF-268 CNS
[37] = test system: RPMI-8226 leukemia
[38] = test system: MCF7 breast
[39] = test system: SK-MEL-28 melanoma
[40] = test system: HS 578T breast
[41] = test system: M14 melanoma
[42] = test system: EKVX NSCLC
[43] = test system: SW-620 colon
[44] = test system: HCC-2998 colon
[45] = test system: A498 renal
[46] = test system: OVCAR-3 ovarian
[47] = test system: A549 NSCLC
[48] = test system: NCI-H522 lung
[49] = test system: HCT-15 colon
[50] = test system: BT-549 breast
[51] = test system: HT29 colon
[52] = test system: UACC-257 melanoma
[53] = test system: K-562 leukemia
[54] = test system: HL-60(TB) leukemia
[55] = test system: HOP-92 NSCLC
[56] = test system: TK-10 renal
[57] = test system: NCI/ADR-RES ovarian
[58] = test system: SK-MEL-2 melanoma

Cc1cncc2cccc(S(=O)(=O)N3CCCNC[C@@H]3C)c12
87 µM: TGI [19]
46.1 µM: TGI [31]
17.7 µM: TGI [45]
> 81.8 µM: TGI [36]
> 91.2 µM: TGI [17]
18.8 µM: TGI [6]
35.9 µM: TGI [50]
84.4 µM: TGI [56]
74.2 µM: TGI [12]
6.52 µM: TGI [24]
> 56.7 µM: TGI [27]
inactive: GI50 [1] 4.46 µM | GI50 [2] 1.82 µM | GI50 [3] 8.81 µM | GI50 [4] 17.1 µM | GI50 [5] 99.5 µM | GI50 [6] 2.85 µM | GI50 [7] 15.2 µM | GI50 [8] 36.1 µM | GI50 [9] > 47 µM | GI50 [10] 24.8 µM | GI50 [11] 2.16 µM | GI50 [12] 14.1 µM | GI50 [13] 14.6 µM | GI50 [14] 44.3 µM | GI50 [15] > 80.3 µM | GI50 [16] 11.5 µM | GI50 [17] 3.55 µM | GI50 [18] 24 µM | GI50 [19] 7.94 µM | GI50 [20] 31.5 µM | GI50 [21] 38.9 µM | GI50 [22] 14.2 µM | GI50 [23] 20.7 µM | GI50 [25] 48.8 µM | GI50 [26] 57.2 µM | GI50 [27] 3.17 µM | GI50 [28] 7.56 µM | GI50 [29] 5.91 µM | GI50 [30] 20.3 µM | GI50 [31] 2 µM | GI50 [32] 46.2 µM | GI50 [33] > 100 µM | GI50 [34] > 100 µM | GI50 [35] > 64.1 µM | GI50 [36] 4.91 µM | GI50 [37] 42.8 µM | GI50 [38] 11.5 µM | GI50 [39] > 100 µM | GI50 [40] 1.51 µM | GI50 [41] > 93.4 µM | GI50 [42] 47.4 µM | GI50 [43] 8.06 µM | GI50 [44] > 88.9 µM | GI50 [45] 1.61 µM | GI50 [46] 58.9 µM | GI50 [47] 14.6 µM | GI50 [48] > 23.1 µM | GI50 [49] 16.3 µM | GI50 [50] 4.04 µM | GI50 [51] 29.3 µM | GI50 [52] > 100 µM | GI50 [53] 50 µM | GI50 [54] 36.2 µM | GI50 [56] 9.18 µM | GI50 [57] 25.4 µM | GI50 [58] 61 µM
100 µM: TGI [54]
> 96.3 µM: TGI [23]
23.8 µM: TGI [11]
> 100 µM: TGI [1] | TGI [3] | TGI [4] | TGI [5] | TGI [7] | TGI [8] | TGI [9] | TGI [10] | TGI [13] | TGI [14] | TGI [15] | TGI [16] | TGI [18] | TGI [20] | TGI [21] | TGI [22] | TGI [25] | TGI [26] | TGI [28] | TGI [29] | TGI [30] | TGI [32] | TGI [33] | TGI [34] | TGI [35] | TGI [37] | TGI [38] | TGI [39] | TGI [40] | TGI [41] | TGI [42] | TGI [43] | TGI [44] | TGI [46] | TGI [47] | TGI [48] | TGI [49] | TGI [51] | TGI [52] | TGI [53] | TGI [55] | TGI [57] | TGI [58]
19.8 µM: TGI [2]
active: GI50 [24] 0.214 µM | GI50 [55] 0.108 µM

O=C(Nc1ccccc1C(=O)O)C(=Cc1ccccc1O)NC(=O)c1ccccc1
> 100 µM: TGI [1] | TGI [2] | TGI [3] | TGI [4] | TGI [5] | TGI [6] | TGI [7] | TGI [8] | TGI [9] | TGI [10] | TGI [11] | TGI [12] | TGI [13] | TGI [14] | TGI [15] | TGI [16] | TGI [17] | TGI [18] | TGI [19] | TGI [20] | TGI [21] | TGI [22] | TGI [23] | TGI [24] | TGI [25] | TGI [26] | TGI [27] | TGI [28] | TGI [29] | TGI [30] | TGI [31] | TGI [32] | TGI [34] | TGI [35] | TGI [36] | TGI [37] | TGI [38] | TGI [39] | TGI [40] | TGI [41] | TGI [42] | TGI [43] | TGI [44] | TGI [45] | TGI [46] | TGI [47] | TGI [48] | TGI [49] | TGI [50] | TGI [51] | TGI [52] | TGI [53] | TGI [54] | TGI [55] | TGI [57] | TGI [58]
